According to patent US10626145B2, “Peptide with anti-obesity and anti-diabetes activity and use thereof” (CAREGEN CO., LTD., priority 2015, dated 2020):

Experiments:
[1] = tested on: DB/DB diabetes-induced mice; experiment: Blood sugar over time in DB/DB diabetes-induced mice given individual peptides; format: in vivo, mouse; conditions: starved 16 hours, fed 30 min, then peptide administered
Protocol: In addition, after starvation for 16 hours, DB/DB diabetes-induced mice were fed for 30 min and then administered with the peptides. Blood sugar levels were measured over times.

[2] = tested on: 3T3-L1 cells (pre-adipocytes); experiment: Suppression of lipid accumulation in pre-adipocytes (Oil Red O staining); format: cell-based, mouse; conditions: 3T3-L1, various concentrations, differentiation induced for 10 days
Protocol: The pre-adipocytes 3T3-L1 cells were grown to confluence and then incubated for two days with various concentrations of the peptides in a differentiation medium containing 10 μg/ml insulin, 0.1 μM dexamethasone, and 0.5 μM IBMX. The medium was exchanged every two days with a medium containing 10 μg/ml insulin. After differentiation was induced for 10 days, the generation of droplet in the cells was examined by Oil Red O staining. The prepared 3T3-L1 adipocytes were washed with PBS, fixed with 3.7% formalin for one hour, and washed with 60% isopropanol. The resulting cells were dyed with Oil Red O reagent at room temperature for 20 min. After removal of the Oil Red O reagent, the cells were washed three times with distilled water, and observed under a phase-contrast microscope. For quantitative analysis, fats were extracted from the cells using 100% isopropanol, and the cells were transferred in an amount of 200 μl/well into 96-well plates and measured for optical density at 500 nm using an ELISA reader.

aP2 = experiment: RT-PCR expression of adipogenic marker aP2 in 3T3-L1; format: cell-based, mouse; conditions: for expression level of adipogenic marker aP2 (individual peptides): 3T3-L1, incubated for three days
Protocol: (§1) 3T3-L1 cells (pre-adipocytes) were seeded at a density of 3×10^5 cells/well into 6-well plates. […] Thereafter, the cells were harvested and treated with an RNA extraction solution (Easy Blue, Intron) to prepare RNA from which cDNA was then synthesized using an RT premix (Intron). PCR was performed using primers for […] markers (PPARγ, ACC, and aP2), and a PCR premix (Intron).
(§2) Target-specific primer sequences for PCR of adipogenic markers were as follows: PPARγ forward primer sequence, 5′-[…]-3′ and PPARγ reverse primer, 5′-[…]-3′ (annealing temperature, 60° C.); ACC forward primer sequence, 5′-[…]-3′ and ACC reverse primer, 5′-[…]-3′ (annealing temperature, 60° C.); aP2 forward primer sequence, 5′-[…]-3′ and aP2 reverse primer, 5′-[…]-3′ (annealing temperature, 60° C.)
(§3) PCR products were each loaded in a volume of 5 μl into a 1% agarose gel, and electrophoresed, followed by identifying bands in a Gel-Doc.

IGF-1 = experiment: Western blotting of IGF-1 expression in 3T3-L1; format: cell-based, mouse; conditions: 3T3-L1, 10 ng-1 μg/ml, 14 days; dose-dependent
Protocol: (§4) 3T3-L1 cells (pre-adipocytes) were seeded at a density of 3×10^5 cells/well into 6-well plates and grown for 24 hours. Subsequently, the cells were incubated with various concentrations (10 ng-1 μg/ml) of the peptides for 14 days in a 37° C. incubator. Proteins were extracted from cell lysates which were obtained by treatment with cell lysis buffer, quantitatively analyzed, and subjected to Western blotting using an anti-IGF-1 antibody, which is an antibody against the lipolytic marker, and an insulin antibody (Santa Cruz Biotechnology, USA).

insulin = experiment: Western blotting of insulin expression in 3T3-L1; format: cell-based, mouse; conditions: 3T3-L1, 10 ng-1 μg/ml, 14 days; dose-dependent
Protocol: as §4

ACC = experiment: RT-PCR expression of adipogenic marker ACC in 3T3-L1; format: cell-based, mouse; conditions: 3T3-L1, three days; complex 0.1, 1, 10 μg/ml; TNFα 100 ng/ml
Protocol: as §1, §2, §3

PPARγ = experiment: RT-PCR expression of adipogenic marker PPARγ in 3T3-L1; format: cell-based, mouse; conditions: 3T3-L1, three days; complex 0.1, 1, 10 μg/ml; TNFα 100 ng/ml
Protocol: as §1, §2, §3

[3] = tested on: DIO (diets induced obesity) models; experiment: Weight loss and adipogenesis suppression in high-fat diet-fed animal (DIO), 12 weeks; format: in vivo, mouse; conditions: for Weight: intraperitoneal injection; for Weight (%): relative to initial weight
Protocol: Models DIO (diets induced obesity), which had become obese by feeding high-fat diets thereto, were used for anti-obesity experiments in which TNFα 5 μg/ml was used as a positive control. For a control, a general diet, not a high-fat diet, was fed. In the experiment, a high-fat diet was fed for 12 weeks while the peptide complex or the positive control was applied. During the experiment, the weight was monitored. TNFα and the anti-obesity compounds were intraperitoneally injected at PM 3-4 o'clock every week for 12 weeks. Weights and meal sizes were measured just before the initial injection and then regularly at intervals of one week. Blood samples were taken from tail veins after the experiments of drug injection and measured for blood sugar levels, using Accu-Check Active (Roche) and analyzed for cholesterol levels, using Cholesterol calculation Kit (BioVision). Adipose tissues are divided into white fat and brown fat by color and into subcutaneous fat, abdominal fat, mesentery fat (visceral fat), and epididymal fat by tissue. After lipoectomy, the fats thus obtained from the tissues were observed. For histological examination, the fats were fixed with 10% neutral buffered formalin, embedded in paraffin blocks, cut into 5 μm-thick sections, and dyed with hematoxylin and eosin. To analyze the phosphorylation of the lipolytic marker HSL, fluorescent staining was carried out with an anti-pHSL antibody. A tissue sample was made, mounted on glycerine jell mounting media, and covered with a cover glass. The tissues were observed under a microscope (Nikon, TS100), with a built-in digital camera taking images thereof.

## KGASTGWMA (Peptide 3) [SEQ ID NO: 3]
[1]
  blood sugar levels over time: decrease in a time-dependent manner
[2]
  extent of fat (lipid) accumulation in cells, Oil red O staining: decreased
aP2
  expression level of adipogenic marker aP2 (individual peptides): decreased

## NH2-Leu-Lys-Thr-Arg-Asn-COOH (H-LKTRN-OH) [SEQ ID NO: 1]
[1]
  blood sugar levels over time: decrease in a time-dependent manner
[2]
  extent of fat (lipid) accumulation in cells, Oil red O staining: decreased
aP2
  expression level of adipogenic marker aP2 (individual peptides): decreased

## ASYLPHPWFS (Peptide 5) [SEQ ID NO: 5]
[1]
  blood sugar levels over time: decrease in a time-dependent manner
[2]
  extent of fat (lipid) accumulation in cells, Oil red O staining: decreased
aP2
  expression level of adipogenic marker aP2 (individual peptides): decreased

## SDLRRLEMYS (Peptide 7) [SEQ ID NO: 7]
IGF-1
  expression of IGF-1: increased
insulin
  expression of insulin: increased

## TNFα
ACC
  expression of adipogenic marker ACC: decrease
PPARγ
  expression of adipogenic marker PPARγ: decrease
[3]; 0 w
  Weight: 22.41 g
  Weight (%): 100%
[3]; 1 w
  Weight: 23 g
  Weight (%): 102.6%
[3]; 2 w
  Weight: 26.12 g
  Weight (%): 116.6%
[3]; 3 w
  Weight: 27.45 g
  Weight (%): 122.5%
[3]; 4 w
  Weight: 30.51 g
  Weight (%): 136.1%
[3]; 5 w
  Weight: 32.76 g
  Weight (%): 146.2%
[3]; 6 w
  Weight: 33.49 g
  Weight (%): 149.4%
[3]; 7 w
  Weight: 35.14 g
  Weight (%): 156.8%
[3]; 8 w
  Weight: 37.15 g
  Weight (%): 165.8%
[3]; 9 w
  Weight: 38.97 g
  Weight (%): 173.9%
[3]; 10 w
  Weight: 40.39 g
  Weight (%): 180.2%
[3]; 11 w
  Weight: 41.35 g
  Weight (%): 184.5%
[3]; 12 w
  Weight: 43.91 g
  Weight (%): 195.9%
aP2; 3T3-L1, three days, complex 0.1, 1, 10 μg/ml, TNFα 100 ng/ml
  expression of adipogenic marker aP2: decrease
